{"source": "patent US10537575B2", "about": "“Phosphodiesterase inhibitors to repair brain and/or retinal injury in human newborns” (priority 2016, dated 2020)", "type_in_all_cases": "in vivo", "key": {"[1]": {"test_system": "Long-Evans rat pups (term neonatal HIE model)", "settings": "HI rat pups", "excerpt": "The experiments were run in a dark environment (below 20 lux of illumination). The equipment consists of a 1.3 m-long glass plate with a dim fluorescent light coming from the side and beamed into the glass. The light reflected downwards by the rats' paws as they contact the glass floor is captured by a high-speed video camera placed under the walkway, and then transformed into a digital image ([…] et al., 2006; Hetze S et al., 2012; Lubjuhn J et al., 2009, […] et al., 2013, Wang Y et al., 2008). The walkway was 90 mm wide. The camera was positioned 40 cm below the walkway, and automatic detection settings were applied. The rat pups walked spontaneously at their own speed; the mother was systematically placed in the goal box to motivate the rat pups to run towards it. An intensity threshold was set to 0.1, the camera gain was set to 20, and the maximum allowed speed variation was set to 60%. A minimum of three quality runs per rat pups were acquired. Only uninterrupted runs were saved for analysis; runs, where animals turned or walked backwards, were excluded, and the animal got another try. […] Step sequence regularity index is a percent index for the degree of interlimb coordination during the gait, as measured by the number of normal step sequence patterns, multiplied by the number of paws and divided by the number of paw placements. […]"}, "[2]": {"test_system": "Long-Evans rat pups (term neonatal HIE model)", "assay": "Microvessel density (collagen IV staining) at P30", "settings": "HI, sildenafil 50 mg/kg, p<0.01", "method": "In addition, using the fourth slide prepared for each animal, an immunohistochemistry with collagen IV staining also was used to assess microvessel density. Sections were labeled with an anti-collagen type IV antibody (EMD Millipore: AB769, Temecula, Calif., USA) (dilution 1:400, incubation time overnight at room temperature) (Tong X K et al., 2005). Then, these sections were incubated with the secondary antibody CyTM3-conjugated AffiniPure donkey anti-goat IgG (Cedarlane: 705-165-147, West Grove, Pa., USA) (dilution 1:400, incubation time 1 hour at room temperature). These sections were rinsed with tris-buffered saline and cover slipped with Vectashield Mounting media containing 4,6-diamidino-2-phenylindole (DAPI) (Vector Laboratories: H1200, Burlingame, Calif., USA) to visualize cell nuclei. To estimate microvessel density, single-layer immunoreactive blood vessels in all orientations were counted as individual microvessels. Collagen IV staining in large vessels with tunica media were disregarded in the microvessel counts (Hallene K L et al., 2006, Iwai M et al., 2007; Noguchi T et al., 2008; Rigau V et al., 2007; Wintermark P et al., 2013; Shaikh H et al., 2015). […] One investigator took pictures of the respective fields of view at 10× magnification."}, "[3]": {"test_system": "Long-Evans rat pups (neonatal HI)", "assay": "White matter myelination, oligodendrocytes and neuroinflammation after neonatal HI", "settings": "P30", "method": "Neonatal HI was induced in male Long-Evans rat pups at postnatal day 10 (P10) by left common carotid ligation followed by 2-hour exposure to 8% oxygen. Sham operated rat pups served as control. […] At P30, rats were sacrificed and their brains extracted. Hematoxylin and eosin staining was performed to analyze the structure of the myelin sheath. Olig2 and CC-1 immunostaining were performed to assess the proportion of mature oligodendrocyte to total oligodendrocytes. GFAP, Iba1, and Mac2 immunostaining was used to label reactive astrocytes and activated microglia. Collagen IV was used to investigate microvessels. Corpus callosum and left external capsule were the 2 regions where these markers were assessed to evaluate “white matter”."}}, "data": [{"smiles": "CCCc1nn(C)c2c(=O)[nH]c(-c3cc(S(=O)(=O)N4CCN(C)CC4)ccc3OCC)nc12", "note": "[sildenafil]", "values": [{"measurement": "print length (gait)", "setting": "[1]; high-dose of sildenafil", "result": "showed an increase"}, {"measurement": "neurological deficits as measured by the gait analysis", "setting": "[1]; sildenafil even in small doses", "result": "improvement of the neurological deficits"}, {"measurement": "microvessel density near the infarct boundary zone, median (IQR)", "setting": "[2]", "result": "211 (182; 221)"}, {"measurement": "myelin sheath thickness in corpus callosum and left external capsule", "setting": "[3]; HI, all dosage", "result": "reverted the myelin sheath thickness back to levels comparable to sham vehicle rat animals"}, {"measurement": "microvessel density in the white matter", "setting": "[3]", "result": "no changes"}, {"measurement": "number of total and mature oligodendrocytes in the left external capsule", "setting": "[3]; after sildenafil", "result": "no changes"}, {"measurement": "reactive astrocytosis and microgliosis in the corpus callosum and left external capsule", "setting": "[3]; higher doses of sildenafil", "result": "significant reduction"}, {"measurement": "number of mature oligodendrocytes in the corpus callosum", "setting": "[3]; sildenafil 50 mg/kg", "result": "significantly increased"}, {"measurement": "number of total oligodendrocytes in the corpus callosum", "setting": "[3]; sildenafil 50 mg/kg", "result": "significantly increased"}]}]}
